{"source": "ChEMBL document CHEMBL3992488", "about": "“Anticancer agents interacting with membrane glucose transporters” (Medchemcomm, 2016)", "key": {"[1]": {"target": "T1, Solute carrier family 2, facilitated glucose transporter member 1 (Homo sapiens, UniProt P11166)", "T1 sequence (P11166 whole entry)": "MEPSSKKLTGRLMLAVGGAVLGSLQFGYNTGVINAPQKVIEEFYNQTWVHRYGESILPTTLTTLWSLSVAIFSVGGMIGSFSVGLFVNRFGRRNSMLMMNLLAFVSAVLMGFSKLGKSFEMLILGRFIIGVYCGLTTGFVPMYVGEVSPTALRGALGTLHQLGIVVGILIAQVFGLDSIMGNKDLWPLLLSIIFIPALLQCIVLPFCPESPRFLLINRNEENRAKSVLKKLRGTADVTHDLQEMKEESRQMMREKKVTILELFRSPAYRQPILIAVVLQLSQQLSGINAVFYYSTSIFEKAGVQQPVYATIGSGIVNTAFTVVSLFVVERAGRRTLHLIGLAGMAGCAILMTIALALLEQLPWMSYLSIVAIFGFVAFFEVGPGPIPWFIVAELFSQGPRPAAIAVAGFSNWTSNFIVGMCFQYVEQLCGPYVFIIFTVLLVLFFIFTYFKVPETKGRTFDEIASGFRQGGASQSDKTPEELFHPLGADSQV", "test": "Inhibition of GLUT1-mediated [14C]glucose uptake in human erythrocytes", "assay_type": "cell-based"}, "[2]": {"target": "T1, Solute carrier family 2, facilitated glucose transporter member 1", "test": "Inhibition of GLUT1 in human MCF7 cells assessed as reduction in [3H]-DG uptake pretreated for 20 mins followed by [3H]-DG addition measured after 6 mins by liquid scintillation counting method", "assay_type": "cell-based"}, "[3]": {"target": "T2, Solute carrier family 2, facilitated glucose transporter member 4 (Mus musculus, UniProt P14142)", "T2 sequence (P14142 whole entry)": "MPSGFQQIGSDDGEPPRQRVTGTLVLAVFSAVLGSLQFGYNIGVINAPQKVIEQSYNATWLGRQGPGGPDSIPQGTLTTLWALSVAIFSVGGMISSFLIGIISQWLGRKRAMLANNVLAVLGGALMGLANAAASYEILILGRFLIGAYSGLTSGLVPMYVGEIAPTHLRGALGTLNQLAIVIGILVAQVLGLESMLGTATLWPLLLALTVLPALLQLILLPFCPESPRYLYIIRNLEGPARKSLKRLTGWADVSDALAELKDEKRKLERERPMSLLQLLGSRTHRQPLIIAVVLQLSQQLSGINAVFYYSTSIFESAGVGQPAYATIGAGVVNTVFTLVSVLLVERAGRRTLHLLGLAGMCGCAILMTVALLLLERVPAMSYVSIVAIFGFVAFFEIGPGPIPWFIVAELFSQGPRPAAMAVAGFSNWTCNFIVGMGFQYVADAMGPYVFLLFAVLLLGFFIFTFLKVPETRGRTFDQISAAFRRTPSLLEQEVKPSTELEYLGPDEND", "test": "Competitive inhibition of GLUT4 in mouse 3T3L1 cells assessed as reduction in insulin-stimulated [3H]-2-deoxy-D-glucose uptake preincubated for 20 mins followed by measured for [3H]-2-deoxy-D-glucose addition measured after 1 to 10 mins by Lineweaver-Burk plot analysis", "assay_type": "cell-based"}, "[4]": {"target": "T1, Solute carrier family 2, facilitated glucose transporter member 1", "test": "Inhibition of GLUT1 in human A431 cells assessed as reduction in 2-[1,2-3H]deoxy-D-glucose uptake measured after 30 mins by liquid scintillation counting method", "assay_type": "cell-based"}, "[5]": {"target": "T1, Solute carrier family 2, facilitated glucose transporter member 1", "test": "Inhibition of GLUT1-mediated glucose uptake in human A549 cells assessed as reduction in ATP synthesis up to 30 mins in presence of mitochondrial function blocker antimycin A", "assay_type": "cell-based"}, "[6]": {"target": "T1, Solute carrier family 2, facilitated glucose transporter member 1", "test": "Inhibition of GLUT1 (unknown origin)-mediated glucose uptake expressed in CHO-K1 cells assessed as reduction in ATP synthesis up to 30 mins in presence of mitochondrial function blocker antimycin A", "assay_type": "cell-based"}, "[7]": {"target": "T1, Solute carrier family 2, facilitated glucose transporter member 1", "test": "Non-competitive inhibition of GLUT1-mediated facilitative uptake of [3H]-2-deoxy-D-glucose in human erythrocyte membranes", "assay_type": "cell membranes"}, "[8]": {"test": "Inhibition of human LDH5"}, "A2780S": {"test_system": "A2780S", "test": "Cytotoxicity against human A2780S cells", "assay_type": "functional, cell-based"}, "A2780cisR": {"test_system": "A2780cisR", "test": "Cytotoxicity against human A2780cisR cells", "assay_type": "functional, cell-based"}, "MCF7": {"test_system": "MCF7", "test": "Cytotoxicity against human MCF7 cells assessed as growth inhibition at 100 uM after 24 hrs by CellTiter 96 AQueous Non-Radioactive assay relative to control", "assay_type": "functional", "settings": "MCF7, 24 h, read-out: GI"}, "[9]": {"test": "Inhibition of PI3K in human U937 cells assessed as reduction in GLUT4 translocation by measuring reduction in 2-[1,2-3H(N)]deoxy-D-glucose uptake after 3 mins by scintillation spectrometric method", "assay_type": "cell-based", "settings": "U-937"}, "Homo sapiens": {"species_on_record": "Homo sapiens", "test": "(§1) Inhibition of PI3K in human MCF7 cells assessed as reduction in insulin-stimulated GLUT4 translocation by measuring reduction in [1-14C]-2-deoxy-D-glucose uptake at 100 uM pretreated for 15 mins followed by insulin stimulation for 10 mins and subsequent addition of [1-14C]-2-deoxy-D-glucose measured after 10 mins relative to control", "assay_type": "cell-based"}, "Mus musculus": {"species_on_record": "Mus musculus", "test": "as §1, with “mouse 3T3L1” for “human MCF7”, “6” for “100”, “3 days” for “15 mins”", "assay_type": "cell-based"}, "[10]": {"target": "T3, Solute carrier family 2, facilitated glucose transporter member 4 (Homo sapiens, UniProt P14672)", "T3 sequence (P14672 whole entry)": "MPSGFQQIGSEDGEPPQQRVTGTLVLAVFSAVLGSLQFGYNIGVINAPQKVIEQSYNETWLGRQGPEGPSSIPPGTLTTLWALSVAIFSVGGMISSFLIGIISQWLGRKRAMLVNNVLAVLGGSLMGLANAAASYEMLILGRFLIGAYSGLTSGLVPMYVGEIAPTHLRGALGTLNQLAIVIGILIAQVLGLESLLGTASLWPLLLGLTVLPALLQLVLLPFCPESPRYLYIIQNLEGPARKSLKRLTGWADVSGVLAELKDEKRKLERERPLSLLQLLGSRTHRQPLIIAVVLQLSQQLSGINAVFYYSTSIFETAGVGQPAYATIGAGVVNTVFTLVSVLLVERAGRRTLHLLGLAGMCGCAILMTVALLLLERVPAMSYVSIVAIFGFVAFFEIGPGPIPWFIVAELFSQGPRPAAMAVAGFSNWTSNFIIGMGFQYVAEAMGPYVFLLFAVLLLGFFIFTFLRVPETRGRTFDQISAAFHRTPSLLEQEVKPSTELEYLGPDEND", "test": "Inhibition of human GLUT4 expressed in CHO cells assessed as reduction in glucose uptake", "assay_type": "cell-based"}, "[11]": {"target": "T1, Solute carrier family 2, facilitated glucose transporter member 1", "test": "Inhibition of human GLUT1 expressed in human DLD1 cells assessed as reduction in glucose uptake", "assay_type": "cell-based"}}}
{"smiles": "CS(=O)(=O)O[C@H]1[C@H](O)[C@@H](O)C(O)O[C@@H]1CO", "note": "(stereo not given in full)", "values": [{"measurement": "IC50", "setting": "[1]", "result": 32000, "unit": "µM"}]}
{"smiles": "O=c1c(O)c(-c2ccc(O)cc2)oc2cc(O)cc(O)c12", "note": "[KAEMPFEROL]", "values": [{"measurement": "IC50", "setting": "[2]", "result": 4, "unit": "µM"}]}
{"smiles": "COc1cc([C@H]2Oc3cc([C@H]4Oc5cc(O)cc(O)c5C(=O)[C@@H]4O)ccc3O[C@@H]2CO)ccc1O", "note": "[SILYBIN A]", "values": [{"measurement": "Ki", "setting": "[3]", "result": 60, "unit": "µM"}]}
{"smiles": "C/C=C(\\C)[C@H](O[C@@H]1O[C@H](CO)[C@@H](O)[C@H](O)[C@H]1O)[C@H](C)/C=C(C)/C=C/C/C(C)=C/Cc1nc(OC)c(OC)c(O)c1C", "values": [{"measurement": "IC50", "setting": "[4]", "result": 0.0049, "unit": "µM"}]}
{"smiles": "CCOC(=O)[C@@]12CN(C(=O)OC(C)(C)C)CC=C1N(CCc1ccc(OC)c(OC)c1)C(=O)[C@H]2CC(=O)NCc1cccc2ccccc12", "values": [{"measurement": "IC50", "setting": "[5]", "result": 3, "unit": "µM"}, {"measurement": "IC50", "setting": "[6]", "result": 1, "unit": "µM"}, {"measurement": "Ki", "setting": "[7]", "result": 0.8, "unit": "µM"}]}
{"smiles": "COC(=O)c1cc2c(C(F)(F)F)cc(-c3ccccc3)cc2n1O", "values": [{"measurement": "Ki", "setting": "[8]", "result": 5.1, "unit": "µM"}]}
{"smiles": "CC(=O)N[C@H](C(=O)N[C@H]1C(O)O[C@H](CO)[C@@H](O)[C@@H]1O)C(C)(C)SN=O", "note": "(stereo not given in full)", "values": [{"measurement": "IC50", "setting": "A2780S", "result": 0.0042, "unit": "µM"}, {"measurement": "IC50", "setting": "A2780cisR", "result": 0.38, "unit": "µM"}]}
{"smiles": "O=C1C[C@@H](c2ccc(O)cc2)Oc2cc(O)cc(O)c21", "note": "[NARINGENIN]", "values": [{"measurement": "inhibition of growth at 100 µM", "setting": "MCF7", "result": 20, "unit": "%"}, {"measurement": "IC50", "setting": "[9]", "result": 50, "unit": "µM"}, {"measurement": "inhibition", "setting": "Homo sapiens", "result": 50, "unit": "%"}, {"measurement": "inhibition", "setting": "Mus musculus", "result": 20, "unit": "%"}]}
{"smiles": "CCOC(=O)[C@@]12CCCCC/C=C\\1N(Cc1cccc3ccccc13)C(=O)[C@H]2CC(=O)N1CCN(C(=O)c2ccco2)CC1", "values": [{"measurement": "IC50", "setting": "[5]", "result": 10, "unit": "µM"}, {"measurement": "IC50", "setting": "[6]", "result": 2, "unit": "µM"}, {"measurement": "Ki", "setting": "[7]", "result": 1.2, "unit": "µM"}]}
{"smiles": "O=C(CCCc1ccc(N(CCCl)CCCl)cc1)OC[C@H]1OC(O)[C@H](O)[C@@H](O)[C@@H]1O", "note": "(stereo not given in full)", "values": [{"measurement": "IC50", "setting": "[1]", "result": 65, "unit": "µM"}]}
{"smiles": "COc1ccc(CC(=O)N[C@@H](Cc2ccccc2Br)C(=O)N[C@@H](C)c2ccccc2)cc1", "values": [{"measurement": "IC50", "setting": "[10]", "result": 0.09, "unit": "µM"}, {"measurement": "IC50", "setting": "[11]", "result": 0.14, "unit": "µM"}]}
